# Legend:
# [1] = General tolerability and body weight during the intervention; details: i.p. once per day, 4 weeks; EGCG, pro-EGCG 50 mg/kg, vitamin E 20 mg/kg
# Method: Immediately after the transplantation, the mice were randomly assigned to receive either vehicle (n=8; sham control), vitamin E (n=8; anti-oxidant control, 20 mg/kg), EGCG (n=8; anti-angiogenesis control, 50 mg/kg, ≈1.5 mg/30 g) or pro-EGCG (n=8; 50 mg/kg).
# Dulbecco's phosphate-buffered saline (PBS, Sigma) was used as solvent to dissolve the drugs. These doses were selected because their significant an angiogenic and anti-oxidative effects have been reported in mice (Sang S, et al. Chem Res Toxicol 2005; 18:1762-9; Villayandre B M, et al. Brain Research 2004; 1028, 148-55). The treatments were administered once per day via intraperitoneal injections for a consecutive 4-week period.
# [2] = system: endometriotic lesions (experimental endometriosis); assay: Growth of luminescent endometriotic lesions monitored weekly by IVIS bioluminescence imaging; format: in vivo, mice; details: for lesion bioluminescence relative to baseline levels / lesion bioluminescence intensity compared with saline group: i.p. once per day, 4 weeks, EGCG, pro-EGCG 50 mg/kg; for lesion bioluminescence intensity compared with saline group: vitamin E 20 mg/kg
# Text: Based on our previous study, an immune-compromised mouse model of experimental endometriosis was created by subcutaneous transplantation of human or mouse tissues to assess the anti-angiogenic effects and mechanisms of green tea catechin (Xu H, et al. Hum Reprod 2009; 24:608-18; Xu H, et al. Fertil Steril 2011; 96:1021-8).
# In this study, endometrial tissues from eight-week-old female CMV-Luc mice (n=15) were acquired for transplantation into nonluminescent NOD-SCID mice (n=32). The mouse endometrium was obtained during the proliferating estrous stage, and biopsies 2 mm in diameter were obtained with a sterile dermal biopsy punch (Miltex, NY). The biopsies were immediately washed in prewarmed, phenol-red-free DMEM/F-12 medium (Sigma) to remove residual blood and mucus, and the samples were maintained in serum-free DMEM/F-12 medium before transplantation (Bruner-Tran K L, et al. J Clin Endocrinol Metab 2009; 94:2489-94). Cultured endometrial biopsies were randomly allocated for transplantation.
# Five mouse endometrial biopsies per treatment group were implanted into a single subcutaneous pocket created is the abdominal wall of the mice along the ventral midline immediately below the umbilicus. All of the surgical procedures were performed under general anesthesia with isoflurane (Baxter, IL), and the mice were monitored until they fully recovered.
# Development and angiogenesis of the experimental endometriosis were monitored using various in vivo imaging systems. During the intervention, growth of the endometriotic lesions (n=8 per group) was monitored each week by measuring the bioluminescence of the subcutaneous luciferase-positive implants using a non-invasive IVIS 200 live animal imaging system (Xenogen) as previously described (Song C, et al. Hum Gene Ther, 2011; 22:439-49). A total of 150 mg/kg of luciferin was injected intraperitoneally […] 10 mins prior to imaging. An image from each animal was captured at bin size 4 in triplicate, and the bioluminescence signal intensities were averaged for comparison.
# [3] = Oxygen radical absorbance capacity (ORAC) in plasma and lesions; format: in vivo, mice; details: for ORAC in endometriotic lesions compared between treatment groups / ORAC in endometriotic lesions compared to saline group: lesions after intervention; for ORAC in plasma compared between treatment groups / ORAC in plasma compared to saline group: plasma during intervention
# Text: Pharmacokinetics of EGCG and pro-EGCG in the animals were studied by measuring the corresponding EGCG and pro-EGCG concentrations (EGCG in the EGCG group, pro-EGCG in the pro-EGCG group) in plasma during the intervention and also in lesions at the end of intervention. EGCG and pro-EGCG were quantified by analytical methods as previously described (Lam W H, et al. Bioorg Med Chem. 2004; 510:69-93; Chu K O, et al. J Chromat B 2004; 810:187-95; Chu K O, et al. Anal Chim Acta 2004; 510:69-76). Anti-oxidative and anti-angiogenesis capacities of the samples were also studied by measuring oxygen radical absorbance capacity (ORAC) using a modified phycoerythrin fluorescence decay assay as previously described (Wang C C, et al. Clin Chem 2004; 50:952-4), and vascular endothelial growth factor (VEGF) concentrations were measured using a commercial ELISA kit (Uscn Life Science Inc., TX) according to the manufacturer's manual. Blood samples (n=8 per group) were collected from the tail vein once per week, and plasma was prepared by immediate centrifugation. Implants without subcutaneous and muscle layers (n=4 per group) were removed from the abdominal wall, and the endometriotic lesions were frozen. All of the samples were kept in −80° C. prior to analysis.
# [4] = cited from earlier work
# [5] = system: human prostate, breast, leukemic, and simian virus 40-transformed cells; details: cited from earlier work
# cancer cells = details: cited from earlier work
Structure (SMILES),"signs of stress, intolerance or toxic responses to administration [1]",lesion bioluminescence relative to baseline levels [2],lesion bioluminescence intensity compared with saline group [2],ORAC in endometriotic lesions compared between treatment groups [3],ORAC in endometriotic lesions compared to saline group [3],ORAC in plasma compared between treatment groups [3],ORAC in plasma compared to saline group [3],bioavailability [4],stability under physiological conditions ([4]; physiological conditions),"potency in inhibition of proliferation and transforming activity and induction of apoptosis, compared with EGCG [5]",cell death induction (cancer cells),proteasome inhibition (cancer cells),"lesion bioluminescence intensity compared with EGCG group ([2]; 50 mg/kg i.p. once per day, 2nd, 3rd and 4th weeks)"
"O=C(O[C@@H]1Cc2c(O)cc(O)cc2O[C@@H]1c1cc(O)c(O)c(O)c1)c1cc(O)c(O)c(O)c1 [EGCG, (−)-epigallocatechin-3-gallate]","No signs of stress, intolerance to anesthesia, surgery or implantation or any toxic responses",maintained around the baseline levels,"significantly lower than that of the saline group at the 2nd, 3rd and 4th weeks",not significantly different from the vitamin E group,significantly increased,not significantly different from the vitamin E group,significantly increased,poor bioavailablity,notably unstable,–,–,–,–
"CC(=O)Oc1cc(OC(C)=O)c2c(c1)O[C@H](c1cc(OC(C)=O)c(OC(C)=O)c(OC(C)=O)c1)[C@H](OC(=O)c1cc(OC(C)=O)c(OC(C)=O)c(OC(C)=O)c1)C2 [pro-EGCG, (−)-EGCG octaacetate]",–,decreased further below the baseline levels,"significantly lower than that of both the saline group and the EGCG group at the 2nd, 3rd and 4th weeks",significantly higher than in the EGCG and vitamin E groups,significantly increased,significantly higher than in the EGCG and vitamin E groups,significantly increased,–,–,much higher potency than EGCG,cell death induction,exhibited proteasome inhibition,"significantly lower than that of both the saline group and the EGCG group at the 2nd, 3rd and 4th weeks"

# Reference: patent publication US10188629B2, “Prodrug of green tea epigallocatechin-3-gallate (pro-EGCG) for use in the treatment of endometriosis” (The Hong Kong Polytechnic University, priority 2012, dated 2019)
